Assay results published in patent US11117892B2, “Pyrrolo-pyridine derivative compound, method for preparing same, and pharmaceutical composition containing same as active ingredient for prevention or treatment of protein kinase-related diseases” (DAEGU-GYEONGBUK MEDICAL INNOVATION FOUNDATION, priority 2017, dated 2021).

What was measured:
Experiment in all cases: scanMAX Kinase assay panel
Type in all cases: binding
Settings in all cases: read-out: % control
LRRK2(G2019S) = LRRK2(G2019S) (Homo sapiens (Human), UniProt Q5S007, G2019S)
How it was run: (§1)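 Using scanMAX, compound selectivity across kinases is determined. The output is % control, bounded by a DMSO control at 100% and a reference positive compound at 0%.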

MEK6 = MEK6 (Homo sapiens (Human), UniProt P52564)
How it was run: as §1

PAK7 = PAK7 (Homo sapiens (Human), UniProt Q9P286)
How it was run: as §1

AKT1 = AKT1 (Homo sapiens (Human), UniProt P31749)
How it was run: as §1

FLT4 = FLT4 (Homo sapiens (Human), UniProt P35916)
How it was run: as §1

PAK2 = PAK2 (Homo sapiens (Human), UniProt Q13177)
How it was run: as §1

IKK-alpha = IKK-alpha (Homo sapiens (Human), UniProt O15111)
How it was run: as §1

PIK3CA(I800L) = PIK3CA(I800L) (Homo sapiens (Human), UniProt P42336, I800L)
How it was run: as §1

CSNK1G3 = CSNK1G3 (Homo sapiens (Human), UniProt Q9Y6M4)
How it was run: as §1

CAMKK2 = CAMKK2 (Homo sapiens (Human), UniProt Q96RR4)
How it was run: as §1

KIT(V559D, T670I) = KIT(V559D, T670I) (Homo sapiens (Human), UniProt P10721, T670I/V559D)
How it was run: as §1

NEK11 = NEK11 (Homo sapiens (Human), UniProt Q8NG66)
How it was run: as §1

DDR2 = DDR2 (Homo sapiens (Human), UniProt Q16832)
How it was run: as §1

[1] = target: ABL1(M351T)-phosphorylated (Homo sapiens (Human), UniProt P00519, M351T)
How it was run: as §1

TLK2 = TLK2 (Homo sapiens (Human), UniProt Q86UE8)
How it was run: as §1

TESK1 = TESK1 (Homo sapiens (Human), UniProt Q15569)
How it was run: as §1

JNK3 = JNK3 (Homo sapiens (Human), UniProt P53779)
How it was run: as §1

WNK1 = WNK1 (Homo sapiens (Human), UniProt Q9H4A3)
How it was run: as §1

MYO3B = MYO3B (Homo sapiens (Human), UniProt Q8WXR4)
How it was run: as §1

LYN = LYN (Homo sapiens (Human), UniProt P07948)
How it was run: as §1

CDK4-cyclinD3 = CDK4-cyclinD3 (Homo sapiens (Human), UniProt P11802)
How it was run: as §1

TXK = TXK (Homo sapiens (Human), UniProt P42681)
How it was run: as §1

PRKCH = PRKCH (Homo sapiens (Human), UniProt P24723)
How it was run: as §1

[2] = target: EGFR(L747-S752del, P753S) (Homo sapiens (Human), UniProt P00533, DEL747-752/P753S)
How it was run: as §1

BRAF = BRAF (Homo sapiens (Human), UniProt P15056)
How it was run: as §1

EPHA4 = EPHA4 (Homo sapiens (Human), UniProt P54764)
How it was run: as §1

FLT3(D835V) = FLT3(D835V) (Homo sapiens (Human), UniProt P36888, D835V)
How it was run: as §1

LATS1 = LATS1 (Homo sapiens (Human), UniProt O95835)
How it was run: as §1

FLT3(K663Q) = FLT3(K663Q) (Homo sapiens (Human), UniProt P36888, K663Q)
How it was run: as §1

ROCK1 = ROCK1 (Homo sapiens (Human), UniProt Q13464)
How it was run: as §1

PIK3CA(E545A) = PIK3CA(E545A) (Homo sapiens (Human), UniProt P42336, E545A)
How it was run: as §1

CAMK2A = CAMK2A (Homo sapiens (Human), UniProt Q9UQM7)
How it was run: as §1

PRKR = PRKR (Homo sapiens (Human), UniProt P19525)
How it was run: as §1

AMPK-alpha2 = AMPK-alpha2 (Homo sapiens (Human), UniProt P54646)
How it was run: as §1

PIK3CG = PIK3CG (Homo sapiens (Human), UniProt P48736)
How it was run: as §1

BTK = BTK (Homo sapiens (Human), UniProt Q06187)
How it was run: as §1

PIK3CA(H1047L) = PIK3CA(H1047L) (Homo sapiens (Human), UniProt P42336, H1047L)
How it was run: as §1

PIM3 = PIM3 (Homo sapiens (Human), UniProt Q86V86)
How it was run: as §1

Sequence of EGFR(L747-S752del, P753S) (P00533 other isoform, or with tags, fused parts or gaps P753S/del L747-S752): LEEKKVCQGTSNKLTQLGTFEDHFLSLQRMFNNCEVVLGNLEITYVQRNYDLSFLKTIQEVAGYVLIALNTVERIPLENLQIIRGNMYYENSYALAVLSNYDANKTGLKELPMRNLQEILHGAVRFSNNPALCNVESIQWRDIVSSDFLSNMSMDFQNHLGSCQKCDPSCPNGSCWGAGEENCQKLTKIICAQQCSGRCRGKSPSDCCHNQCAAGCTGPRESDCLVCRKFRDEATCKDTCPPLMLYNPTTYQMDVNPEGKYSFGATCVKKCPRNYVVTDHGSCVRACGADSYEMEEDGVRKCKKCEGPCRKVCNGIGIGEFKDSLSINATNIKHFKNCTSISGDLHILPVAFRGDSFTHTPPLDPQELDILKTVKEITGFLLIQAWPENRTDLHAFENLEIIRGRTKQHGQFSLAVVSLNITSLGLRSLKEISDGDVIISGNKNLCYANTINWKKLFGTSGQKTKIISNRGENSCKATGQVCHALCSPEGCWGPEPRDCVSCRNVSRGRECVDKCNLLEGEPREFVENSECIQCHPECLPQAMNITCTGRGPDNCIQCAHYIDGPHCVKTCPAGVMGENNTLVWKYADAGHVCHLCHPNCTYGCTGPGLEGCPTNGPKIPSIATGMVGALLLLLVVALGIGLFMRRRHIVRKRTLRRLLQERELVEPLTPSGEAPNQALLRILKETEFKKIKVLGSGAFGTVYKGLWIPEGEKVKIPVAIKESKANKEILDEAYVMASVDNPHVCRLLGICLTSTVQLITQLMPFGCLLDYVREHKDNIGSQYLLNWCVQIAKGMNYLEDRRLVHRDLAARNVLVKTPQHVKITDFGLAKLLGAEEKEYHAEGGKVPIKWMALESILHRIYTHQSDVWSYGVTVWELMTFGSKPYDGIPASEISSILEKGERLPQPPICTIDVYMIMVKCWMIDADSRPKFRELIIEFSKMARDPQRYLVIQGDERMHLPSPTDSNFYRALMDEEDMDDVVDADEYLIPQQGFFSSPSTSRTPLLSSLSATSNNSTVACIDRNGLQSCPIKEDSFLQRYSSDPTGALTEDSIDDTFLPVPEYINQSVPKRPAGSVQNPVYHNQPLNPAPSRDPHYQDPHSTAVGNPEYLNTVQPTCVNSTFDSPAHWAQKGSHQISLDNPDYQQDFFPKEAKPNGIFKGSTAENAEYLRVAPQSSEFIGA
Sequence of PIK3CG (P48736 whole entry): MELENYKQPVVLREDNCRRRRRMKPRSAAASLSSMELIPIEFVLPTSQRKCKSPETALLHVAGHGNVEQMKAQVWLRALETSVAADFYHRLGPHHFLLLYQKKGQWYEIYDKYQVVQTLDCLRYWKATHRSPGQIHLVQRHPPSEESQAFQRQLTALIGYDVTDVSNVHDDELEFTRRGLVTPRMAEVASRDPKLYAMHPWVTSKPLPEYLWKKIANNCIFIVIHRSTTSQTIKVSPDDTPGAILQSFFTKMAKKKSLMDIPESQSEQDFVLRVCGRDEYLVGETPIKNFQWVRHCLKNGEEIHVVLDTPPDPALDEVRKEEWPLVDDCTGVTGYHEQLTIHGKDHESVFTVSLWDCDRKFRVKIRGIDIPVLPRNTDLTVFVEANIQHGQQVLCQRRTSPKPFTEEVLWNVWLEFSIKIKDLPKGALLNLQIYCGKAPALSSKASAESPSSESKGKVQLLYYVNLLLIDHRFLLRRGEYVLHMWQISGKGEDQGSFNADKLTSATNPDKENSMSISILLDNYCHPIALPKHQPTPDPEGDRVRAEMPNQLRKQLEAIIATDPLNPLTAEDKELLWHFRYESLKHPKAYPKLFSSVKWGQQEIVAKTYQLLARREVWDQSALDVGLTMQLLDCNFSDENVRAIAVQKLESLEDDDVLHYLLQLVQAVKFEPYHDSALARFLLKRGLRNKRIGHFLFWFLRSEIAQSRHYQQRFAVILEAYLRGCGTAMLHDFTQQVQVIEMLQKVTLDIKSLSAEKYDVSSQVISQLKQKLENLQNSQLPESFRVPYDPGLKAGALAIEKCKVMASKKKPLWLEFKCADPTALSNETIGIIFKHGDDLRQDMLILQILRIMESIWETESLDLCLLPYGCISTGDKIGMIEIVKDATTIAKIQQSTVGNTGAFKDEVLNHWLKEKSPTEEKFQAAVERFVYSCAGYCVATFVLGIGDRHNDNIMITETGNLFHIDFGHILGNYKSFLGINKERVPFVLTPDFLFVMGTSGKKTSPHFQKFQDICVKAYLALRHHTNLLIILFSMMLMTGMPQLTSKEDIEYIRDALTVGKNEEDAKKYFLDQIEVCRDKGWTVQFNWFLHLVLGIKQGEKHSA
Sequence of MYO3B (Q8WXR4 whole entry): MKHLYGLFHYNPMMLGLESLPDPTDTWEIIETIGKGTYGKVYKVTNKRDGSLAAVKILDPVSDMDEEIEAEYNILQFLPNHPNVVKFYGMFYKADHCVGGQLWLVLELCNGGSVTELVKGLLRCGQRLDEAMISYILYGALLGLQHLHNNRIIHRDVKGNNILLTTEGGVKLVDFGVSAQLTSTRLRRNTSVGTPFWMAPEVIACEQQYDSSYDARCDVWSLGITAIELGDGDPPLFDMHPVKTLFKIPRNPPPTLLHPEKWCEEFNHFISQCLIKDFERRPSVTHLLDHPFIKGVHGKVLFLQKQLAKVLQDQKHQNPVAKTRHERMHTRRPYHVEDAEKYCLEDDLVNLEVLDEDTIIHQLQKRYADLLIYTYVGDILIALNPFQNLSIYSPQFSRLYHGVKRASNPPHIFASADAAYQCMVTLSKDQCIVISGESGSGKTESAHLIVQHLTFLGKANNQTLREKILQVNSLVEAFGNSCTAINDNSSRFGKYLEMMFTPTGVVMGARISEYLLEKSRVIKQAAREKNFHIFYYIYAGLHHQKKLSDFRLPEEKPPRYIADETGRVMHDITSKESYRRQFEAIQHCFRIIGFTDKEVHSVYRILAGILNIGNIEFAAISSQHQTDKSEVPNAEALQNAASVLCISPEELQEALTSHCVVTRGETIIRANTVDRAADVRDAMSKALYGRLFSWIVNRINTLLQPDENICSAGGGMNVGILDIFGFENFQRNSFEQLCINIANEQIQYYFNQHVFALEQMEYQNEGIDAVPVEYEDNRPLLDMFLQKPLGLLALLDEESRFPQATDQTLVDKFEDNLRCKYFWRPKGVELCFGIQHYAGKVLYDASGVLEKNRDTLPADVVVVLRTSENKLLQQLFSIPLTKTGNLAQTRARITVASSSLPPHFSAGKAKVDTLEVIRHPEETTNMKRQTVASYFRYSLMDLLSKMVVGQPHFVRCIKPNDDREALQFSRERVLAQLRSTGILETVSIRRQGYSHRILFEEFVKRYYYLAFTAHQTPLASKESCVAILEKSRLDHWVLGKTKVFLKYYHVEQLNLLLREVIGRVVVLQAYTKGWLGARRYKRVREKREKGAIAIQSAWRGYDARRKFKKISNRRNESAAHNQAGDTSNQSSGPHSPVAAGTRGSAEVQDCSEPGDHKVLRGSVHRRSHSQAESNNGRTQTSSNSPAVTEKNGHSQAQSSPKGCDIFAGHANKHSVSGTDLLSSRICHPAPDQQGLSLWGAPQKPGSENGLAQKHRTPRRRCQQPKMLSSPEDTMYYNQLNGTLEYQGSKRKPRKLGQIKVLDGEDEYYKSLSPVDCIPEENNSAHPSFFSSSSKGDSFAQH
Sequence of CSNK1G3 (Q9Y6M4 whole entry): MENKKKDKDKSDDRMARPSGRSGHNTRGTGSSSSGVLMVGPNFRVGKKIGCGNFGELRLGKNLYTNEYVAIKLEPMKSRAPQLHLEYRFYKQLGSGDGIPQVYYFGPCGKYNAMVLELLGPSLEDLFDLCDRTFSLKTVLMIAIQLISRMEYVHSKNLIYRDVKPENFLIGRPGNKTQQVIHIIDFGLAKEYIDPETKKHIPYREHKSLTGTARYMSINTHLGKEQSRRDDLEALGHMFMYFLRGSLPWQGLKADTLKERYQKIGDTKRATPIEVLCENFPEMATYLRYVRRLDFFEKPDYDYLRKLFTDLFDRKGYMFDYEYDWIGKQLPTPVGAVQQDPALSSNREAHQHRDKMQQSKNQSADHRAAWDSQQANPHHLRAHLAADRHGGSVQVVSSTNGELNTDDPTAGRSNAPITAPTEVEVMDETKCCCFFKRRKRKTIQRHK
Sequence of DDR2 (Q16832 22-855): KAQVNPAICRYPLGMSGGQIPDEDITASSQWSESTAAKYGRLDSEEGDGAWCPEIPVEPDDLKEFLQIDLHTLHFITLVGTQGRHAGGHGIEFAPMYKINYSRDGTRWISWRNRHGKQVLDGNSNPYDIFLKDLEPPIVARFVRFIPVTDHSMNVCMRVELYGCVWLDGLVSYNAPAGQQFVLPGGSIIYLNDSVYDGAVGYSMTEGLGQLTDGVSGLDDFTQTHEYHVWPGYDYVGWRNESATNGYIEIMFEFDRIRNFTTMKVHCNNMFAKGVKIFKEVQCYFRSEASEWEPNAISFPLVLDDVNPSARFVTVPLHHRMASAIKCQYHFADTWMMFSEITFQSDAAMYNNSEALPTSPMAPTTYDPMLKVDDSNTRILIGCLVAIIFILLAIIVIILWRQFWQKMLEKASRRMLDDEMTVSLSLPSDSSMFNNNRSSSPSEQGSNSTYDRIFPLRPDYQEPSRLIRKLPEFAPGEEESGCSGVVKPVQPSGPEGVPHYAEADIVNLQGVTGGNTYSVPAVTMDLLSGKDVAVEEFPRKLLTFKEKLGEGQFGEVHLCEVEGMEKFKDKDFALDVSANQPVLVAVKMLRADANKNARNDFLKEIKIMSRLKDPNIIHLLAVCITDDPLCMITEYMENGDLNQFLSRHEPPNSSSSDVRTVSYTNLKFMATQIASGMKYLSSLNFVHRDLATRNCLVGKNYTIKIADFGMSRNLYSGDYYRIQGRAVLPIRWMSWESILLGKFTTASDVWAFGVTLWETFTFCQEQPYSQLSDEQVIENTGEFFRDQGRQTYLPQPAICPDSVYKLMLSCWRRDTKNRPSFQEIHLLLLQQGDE

| Compound | remaining binding at 1 µM (LRRK2(G2019S)) | remaining binding at 1 µM (MEK6) | remaining binding at 1 µM (PAK7) | remaining binding at 1 µM (AKT1) | remaining binding at 1 µM (FLT4) | remaining binding at 1 µM (PAK2) | remaining binding at 1 µM (IKK-alpha) | remaining binding at 1 µM (PIK3CA(I800L)) | remaining binding at 1 µM (CSNK1G3) | remaining binding at 1 µM (CAMKK2) | remaining binding at 1 µM (KIT(V559D, T670I)) | remaining binding at 1 µM (NEK11) | remaining binding at 1 µM (DDR2) | remaining binding at 1 µM [1] | remaining binding at 1 µM (TLK2) | remaining binding at 1 µM (TESK1) | remaining binding at 1 µM (JNK3) | remaining binding at 1 µM (WNK1) | remaining binding at 1 µM (MYO3B) | remaining binding at 1 µM (LYN) | further results |
| --- | --- | --- | --- | --- | --- | --- | --- | --- | --- | --- | --- | --- | --- | --- | --- | --- | --- | --- | --- | --- | --- |
| CCNc1cc(Nc2ccc(C(=O)N3CCC(N4CCOCC4)CC3)cc2OC)nc2[nH]cc(C#N)c12 [Example 18, 4-(ethylamino)-6-((2-methoxy-4-(4-morpholinopiperidine-1-carbonyl)phenyl)amino)-1H-pyrrolo[2,3-b]pyridine-3-carbonitrile] | 0.6% | 53% | 80% | 100% | 100% | 82% | 44% | 100% | 7.1% | 52% | 48% | 100% | 98% | 100% | 98% | 90% | 0% | 93% | 73% | 90% | remaining binding at 1 µM (CDK4-cyclinD3): 100%; remaining binding at 1 µM (TXK): 99%; remaining binding at 1 µM (PRKCH): 95%; remaining binding at 1 µM [2]: 92%; remaining binding at 1 µM (BRAF): 83%; remaining binding at 1 µM (EPHA4): 98%; remaining binding at 1 µM (FLT3(D835V)): 74%; remaining binding at 1 µM (LATS1): 97%; remaining binding at 1 µM (FLT3(K663Q)): 84%; remaining binding at 1 µM (ROCK1): 9.1%; remaining binding at 1 µM (PIK3CA(E545A)): 100%; remaining binding at 1 µM (CAMK2A): 72%; remaining binding at 1 µM (PRKR): 95%; remaining binding at 1 µM (AMPK-alpha2): 100%; remaining binding at 1 µM (PIK3CG): 100%; remaining binding at 1 µM (BTK): 99%; remaining binding at 1 µM (PIK3CA(H1047L)): 85%; remaining binding at 1 µM (PIM3): 78% |
| CCNc1cc(Nc2ccc(C(=O)N3CCC(N4CCOCC4)CC3)cc2OC)nc2[nH]cc(C(F)(F)F)c12 [Example 57, (4-((4-(ethylamino)-3-(trifluoromethyl)-1H-pyrrolo[2,3-b]pyridin-6-yl)amino)-3-methoxyphenyl) (4-morpholinopiperidin-1-yl)methanone] | 27% | 72% | 100% | 97% | 99% | 40% | 100% | 69% | 89% | 49% | 78% | 100% | 91% | 98% | 88% | 79% | 52% | 100% | 83% | 100% | remaining binding at 1 µM (CDK4-cyclinD3): 100%; remaining binding at 1 µM (TXK): 85%; remaining binding at 1 µM (PRKCH): 99%; remaining binding at 1 µM [2]: 97%; remaining binding at 1 µM (BRAF): 98%; remaining binding at 1 µM (EPHA4): 94%; remaining binding at 1 µM (FLT3(D835V)): 92%; remaining binding at 1 µM (LATS1): 94%; remaining binding at 1 µM (FLT3(K663Q)): 94%; remaining binding at 1 µM (ROCK1): 100%; remaining binding at 1 µM (PIK3CA(E545A)): 77%; remaining binding at 1 µM (CAMK2A): 72%; remaining binding at 1 µM (PRKR): 93%; remaining binding at 1 µM (AMPK-alpha2): 98%; remaining binding at 1 µM (PIK3CG): 87%; remaining binding at 1 µM (BTK): 100%; remaining binding at 1 µM (PIK3CA(H1047L)): 100%; remaining binding at 1 µM (PIM3): 78% |
